Measured values as given in patent USRE37781E1, “Substituted cyclic carbonyls and derivatives thereof useful as retroviral protease inhibitors” (DuPont Pharmaceuticals Company, priority 1991, dated 2002).
Converted amounts (≈) assume the structure as drawn. Like-named read-outs stand apart in the source and are kept apart here.

Assays:
[1] = target: single-chain tethered dimer of HIV protease (Human immunodeficiency virus 1, UniProt P04585); test: biochemical; assay type: biochemical
Method: HIV Protease Inhibition Assay—HPLC Method
Active protease was prepared as described therein by extraction with 67% acetic acid, dilution 33-fold with water, dialysis against water and then against a “refolding buffer” consisting of 20 mM MES, 1 mM dithiothreitol and 10% glycerol. Protease was stored as a stock preparation at 10 uM in refolding buffer.
Substrate: Peptide of sequence: aminobenzoyl-Ala-Thr-His-Gln-Val-Tyr-Phe(NO2)-Val-Arg-Lys-Ala containing p-nitrophenylalanine, was prepared by solid phase synthesis as previously described Cheng et al., op.cit. Stock solutions of 2 mM substrate were prepared in DMSO.
Inhibitory compounds were dissolved in sufficient DMSO to make 3 mM stock solutions. All further dilutions were prepared in “assay buffer”: 1M NaCl, 50 mM MES, pH 5.5, 1 mM EDTA, 1 mM DTT, […] glycerol.
Enzyme reaction: In a 2 ml screw-cap centrifuge tube were added 50 ul protease (final concentration 0.25 nM) and 0.1 ml inhibitory compound (final concentration […]). After 15 min preincubation at room temperature, the reaction was started with the addition of 0.05 ml substrate (final concentration 5 uM). Incubation was carried out at 30 C. for 1 hr. The reaction was stopped with 1 ml 0.1M ammonium hydroxide.
HPLC measurement of product formation: The product (aminobenzoyl-Ala-Thr-His-Gln-Val-Tyr) was separated from substrate on a Pharmacia MonoQ anion exchange column. The injection volume was 0.2 ml. The mobile phases were: A (20 mM trisHCl, pH 9.0, 0.02% sodium Azide, 10% acetonitrile), B (20 mM tris HCl, pH 9.0, 0.02% sodium azide, 0.5M ammonium formate, 10% acetonitrile). The mobile phases were pumped at 1 ml/min, with a gradient from 0 to 30% B in 5 min, 100% B for 4 min to wash the column, and a re-equilibration for 4 min. The retention time of the product was 3.6 min. Detection with a Shimadzu model RF535 fluorescence monitor was at 330 nm (excitation) and 430 (emission).

HIV-1 (RF) in MT-2 cells = test: microbe, parasite or virus in culture; assay type: cell-based; details: HIV-1 infected MT-2 cells, class symbols
How it was run: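 HIV-1 laboratory strains (RF, MN, IIIB) grown in H9 cells in RPMI 1640 with 5% FCS; infections in MT-2 cells. Viral RNA quantified by hybridization with biotinylated gag/pol capture probes on streptavidin plates and alkaline phosphatase-conjugated reporter probes; BH10 gag-pol in vitro transcripts serve as RNA standards.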

[2] = Human immunodeficiency virus 1, MT2, HIV RNA assay, read-out: IC90
[3] = HIV protease inhibition, class symbols, read-out: Ki

## O=S1(=O)N(Cc2ccc3ccccc3c2)CC(O)C(Cc2ccccc2)N1Cc1ccc2ccccc2c1 (stereo not drawn) [30I]
[1]; Table 2t, read-out: Ki
  Ki: 10 to 1000 nM

## CC(=O)Nc1cccc(CN2C(=O)N(Cc3cccc(NC(C)=O)c3)C(Cc3ccccc3)C(O)C(O)C2Cc2ccccc2)c1 (stereo not drawn) [Example 6ZN]
HIV-1 (RF) in MT-2 cells; [2]
  IC90: < 10 µg/mL
[1]
  Ki: < 10 nM

## COc1ccccc1CN1C(=O)N(Cc2ccccc2OC)C(Cc2ccccc2)C(O)C(O)C1Cc1ccccc1 (stereo not drawn) [Example 6ZB]
HIV-1 (RF) in MT-2 cells; [2]
  IC90: 10 to 100 µg/mL (≈ 17.6 to 176 µM)
[1]
  Ki: > 1000 nM

## O=C1N(Cc2ccccc2F)C(Cc2ccccc2)C(O)C(O)C(Cc2ccccc2)N1Cc1ccccc1F (stereo not drawn) [Example 6P]
HIV-1 (RF) in MT-2 cells; [2]
  IC90: < 10 µg/mL
[1]
  Ki: 10 to 1000 nM

## O=C1N(CC2CCCCC2)C(Cc2ccccc2)C(O)C(O)C(Cc2ccccc2)N1CC1CCCCC1 (stereo not drawn) [Example 3O]
HIV-1 (RF) in MT-2 cells; HIV RNA assay
  IC90: + (+=>100 μg/mL)
[1]; [3]
  Ki: 10 to 1000 nM

## O=C1N(Cc2ccc(Cl)s2)C(Cc2ccccc2)C(O)C(O)C(Cc2ccccc2)N1Cc1ccc(Cl)s1 (stereo not drawn) [Example 6F]
HIV-1 (RF) in MT-2 cells; HIV RNA assay
  IC90: +++ (+++=<10 μg/mL)
[1]; [3]
  Ki: 10 to 1000 nM

## O=C1N(Cc2ccc3ccccc3c2)CC(O)C(Cc2ccccc2)N1Cc1ccc2ccccc2c1 (stereo not drawn) [30F]
[1]; Table 2t, read-out: Ki
  Ki: > 1000 nM

## O=C(O)c1cccc(CN2C(=O)N(Cc3cccc(C(=O)O)c3)C(Cc3ccccc3)C(O)C(O)C2Cc2ccccc2)c1 (stereo not drawn) [Example 6A]
HIV-1 (RF) in MT-2 cells; HIV RNA assay
  IC90: +++ (+++=<10 μg/mL)
[1]; [3]
  Ki: < 10 nM

## O=C1N(Cc2ccccc2)C(Cc2ccccc2)C(O)C(O)C(Cc2ccccc2)N1CC1CCCC1 (stereo not drawn) [Example 4E]
HIV-1 (RF) in MT-2 cells; HIV RNA assay
  IC90: +++ (+++=<10 μg/mL)
[1]; [3]
  Ki: < 10 nM

## CCCCN1C(=O)N(CC=C(C)C)C(Cc2ccccc2)C(O)C(O)C1Cc1ccccc1 (stereo not drawn) [Example 6I]
HIV-1 (RF) in MT-2 cells; HIV RNA assay
  IC90: +++ (+++=<10 μg/mL)
[1]; [3]
  Ki: < 10 nM

## O=C1N(Cc2ccccc2)CCC(O)C(Cc2ccccc2)N1Cc1ccccc1 (stereo not drawn) [30L]
[1]; Table 2t, read-out: Ki
  Ki: > 1000 nM

## O=C1N(CC2CCC2)C(Cc2ccccc2)C(O)C(O)C(Cc2ccccc2)N1CC1CCC1 (stereo not drawn) [Example 6G]
HIV-1 (RF) in MT-2 cells; [2]
  IC90: < 10 µg/mL
[1]
  Ki: < 10 nM

## O=C1N(Cc2cccnc2)C(Cc2ccccc2)C(O)C(O)C(Cc2ccccc2)N1CC1CC1 (stereo not drawn) [Example 5G]
HIV-1 (RF) in MT-2 cells; HIV RNA assay
  IC90: +++ (+++=<10 μg/mL)
[1]; [3]
  Ki: < 10 nM

## O=C1N(CC2CC2)CC(O)C(Cc2ccccc2)N1CC1CC1 (stereo not drawn) [30E]
[1]; Table 2t, read-out: Ki
  Ki: > 1000 nM

## C=CCN1C(=O)N(CC2CCCC2)C(Cc2ccccc2)C(O)C(O)C1Cc1ccccc1 (stereo not drawn) [Example 5B]
HIV-1 (RF) in MT-2 cells; HIV RNA assay
  IC90: +++ (+++=<10 μg/mL)
[1]; [3]
  Ki: < 10 nM

## O=C1N(Cc2ccccc2)CC(O)C(Cc2ccccc2)N1Cc1ccccc1 (racemic) [30A]
[1]; Table 2t, read-out: Ki
  Ki: > 1000 nM

## O=C1N(Cc2ccc(O)cc2)CC(O)C(Cc2ccccc2)N1Cc1ccc(O)cc1 (stereo not drawn) [30D]
[1]; Table 2t, read-out: Ki
  Ki: > 1000 nM

## O=C1N(Cc2ccc3ccccc3c2)CCC(O)C(Cc2ccccc2)N1Cc1ccc2ccccc2c1 (stereo not drawn) [30M]
[1]; Table 2t, read-out: Ki
  Ki: > 1000 nM

## O=C1N(Cc2cccc(Cl)c2)C(Cc2ccccc2)C(O)C(O)C(Cc2ccccc2)N1CC1CC1 (stereo not drawn) [Example 6ZH]
HIV-1 (RF) in MT-2 cells; HIV RNA assay
  IC90: +++ (+++=<10 μg/mL)
[1]; [3]
  Ki: < 10 nM

## CCCCN1C(=O)N(CC2CC2)C(Cc2ccccc2)C(O)C(O)C1Cc1ccccc1 (stereo not drawn) [Example 3X]
HIV-1 (RF) in MT-2 cells; [2]
  IC90: < 10 µg/mL
[1]
  Ki: < 10 nM

## O=C(O)c1ccc(CN2C(=O)N(Cc3ccc(C(=O)O)cc3)C(Cc3ccccc3)C(O)C(O)C2Cc2ccccc2)cc1 (stereo not drawn) [Example 6B]
HIV-1 (RF) in MT-2 cells; HIV RNA assay
  IC90: ++ (++=10 to 100 μg/mL)
[1]; [3]
  Ki: 10 to 1000 nM

## O=C1N(Cc2ccncc2)C(Cc2ccccc2)C(O)C(O)C(Cc2ccccc2)N1CC1CC1 (stereo not drawn) [Example 4C]
HIV-1 (RF) in MT-2 cells; [2]
  IC90: < 10 µg/mL
[1]
  Ki: < 10 nM

## O=CNc1cccc(CN2C(=O)N(Cc3cccc(NC=O)c3)C(Cc3ccccc3)C(O)C(O)C2Cc2ccccc2)c1 (stereo not drawn) [Example 6ZM]
HIV-1 (RF) in MT-2 cells; [2]
  IC90: < 10 µg/mL
[1]
  Ki: < 10 nM

## O=C1N(CC=Cc2ccccc2)C(Cc2ccccc2)C(O)C(O)C(Cc2ccccc2)N1CC1CC1 (stereo not drawn) [Example 4I]
HIV-1 (RF) in MT-2 cells; [2]
  IC90: < 10 µg/mL
[1]
  Ki: < 10 nM

## N#Cc1cccc(CN2CC(O)C(Cc3ccccc3)N(Cc3cccc(C#N)c3)C2=O)c1 (stereo not drawn) [30C]
[1]; Table 2t, read-out: Ki
  Ki: > 1000 nM
